Source: patent US10145845B2, “On-chip assay for environmental surveillance” (priority 2015, dated 2018)

How the values were obtained:
[1] = system: RAD54 protein; conditions: yeast cells, H2O2 170, 1700 and 17,000 ppm for 60 minutes
[2] = drafted three tiered IDLHs; cited from earlier work

## OO [H2O2, Hydrogen peroxide]
[1]
  peak intensity of protein measured at 1390 cm^-1 (carboxylic band, SLISA): dose-dependent increase
[1]; SLISA and ELISA
  increase in RAD54 expression as compared to control (baseline expression by cells with no toxin exposure): ~4 fold
[2]
  IDLH tier II (lethal, long-lasting disabling effect): ≤ 1000 ppm
  IDLH tier III (lethal, life-threatening effect or even death): > 1000 ppm
